Test results: US20150299238A1, “SYNTHESIS AND USE OF PRODRUG COMPLEXES OF COBALT IN POLYMER THERAPEUTICS” (priority 2014, published 2015)
Entries after “also recorded” stand apart in the source; their conditions may differ.

Legend:
[1] = tested on: SNU-5 cells; assay: Nanoparticle uptake by image-based flow cytometry; type: cell-based; details: for High uptake (red), percentage of cells / Low uptake (blue), percentage of cells / No uptake (green), percentage of cells: SNU-5, 8 h incubation, 100 μg/mL
Procedure: An Amnis FlowSight image-based flow cytometer equipped with a 488 nm (60 mW) and Side Scatter (7.85 mW) (EMD Millipore; Seattle, Wash.) was used to analyze cell samples. The FlowSight uses a CCD camera system to simultaneously collect both quantitative fluorescence and image data. For uptake studies, SNU-5 cells were incubated with Co-Alb-FITC NPs in the presence or absence of a commonly used inhibitor of macropinocytosis, 5-(N-ethyl-N-isopropyl)amiloride (EIPA), followed by fixation, and analysis via image-based flow cytometry.
SNU-5 cells were cultured at 37° C. and 5% CO2 in IMDM medium supplemented with 20% fetal bovine serum at cell densities between 1×10^5 and 1×10^6 cells/mL, and Jurkat cells were cultured at 37° C. and 5% CO2 in RPMI-1640 medium supplemented with 10% fetal bovine serum at cell densities between 1×10^5 and 1×10^6 cells/mL. For nanoparticle uptake experiments, cells were transferred to serum-starved IMDM or RPMI-1640 medium (0.1% FBS) and incubated at 37° C. and 5% CO2 for 10-16 h prior to dosing with nanoparticles. Cells (2 mL, 500,000 cells/mL) were incubated with the desired nanoparticle or control particle solution (100 μg/mL) with or without added EIPA for the times indicated. Cells were then washed twice with PBS, fixed for 12 min in 3.7% formaldehyde in PBS, washed twice with PBS, stained with NucBlue® Fixed Cell ReadyProbes® Reagent, and then washed twice more with PBS. Samples were either analyzed immediately or stored at 4° C. in the dark until analysis.

[2] = Analysis of PEGylation reaction by DLS, ethanolamine challenge of the Co linkage; type: physicochemical
Procedure: While sonicating (Branson, model #2510), human transferrin (0.5 mL of a 1 mg/mL aqueous solution, Sigma-Aldrich, cat. #T0665-50MG, lot #SLBC […]) was added. The solution had no discernible color and was allowed to stand undisturbed for 15 min. Dynamic light scattering (DLS, Microtrac Nanotrac Ultra) was used to measure particle size where the volume average particle size was 13.6 nm (standard deviation=4.2 nm). Hydrogen peroxide (20 μL of a 30% solution, Mallinckrodt AR, cat. #5240, lot #5240Y23470) was added while sonicating and the solution was thoroughly mixed by pipetting. The solution became faintly yellow but with no turbity. The solution was allowed to stand undisturbed for 30 min. Analysis of PEGylation reaction by DLS. The average diameter of both human transferrin (6.8 nm, SD=1.8 nm) and H2N-PEG-COOH (4.8 nm, SD=1.2 nm) were measured by DLS (FIG. 5). […] Addition of ethanolamine (50 mM) at this point led to a decrease in particle size back to 6.4 nm (SD=2.0) thereby degrading the prodrug linkage due to facile exchange of the Co amino ligands.

Compound: CCN(c1nc(N)c(C(=O)N=C(N)N)nc1Cl)C(C)C [EIPA, 5-(N-ethyl-N-isopropyl)amiloride]
- Cell viability in the uptake experiment ([1]; SNU-5, 100 μM EIPA): slight decrease in cell viability
- Effect on uptake of Co-Alb-FITC NPs ([1]; SNU-5, pre-incubation with inhibitor): dramatic reduction in particle uptake; also recorded: reduce uptake in a dose-dependent manner
- Inhibitory effect on uptake over time ([1]; SNU-5, uptake of Co-Alb-FITC NPs): remained relatively constant over 8 h, but became greatly diminished at 24 h

Compound: FITC-Alb only
- High uptake (red), percentage of cells ([1]; EIPA 0 μM): 13.9%
- Low uptake (blue), percentage of cells ([1]; EIPA 0 μM): 45.4%
- No uptake (green), percentage of cells ([1]; EIPA 0 μM): 40.6%
- High uptake (red), percentage of cells ([1]; EIPA 75 μM): 16.9%
- Low uptake (blue), percentage of cells ([1]; EIPA 75 μM): 11.8%
- No uptake (green), percentage of cells ([1]; EIPA 75 μM): 71.3%
- Uptake in the presence of EIPA ([1]; SNU-5, free protein 100 μg/mL, no NPs): reduction in uptake

Compound: transferrin-PEG conjugate
- Particle size after addition of ethanolamine ([2]; ethanolamine 50 mM, not oxidized (Co(II))): 6.4 nm
- Average diameter after addition of ethanolamine ([2]; oxidized 30 min with H2O2 (Co(III)) before ethanolamine): 18.3 nm
